Source: patent US20050250137A1, “Molecular targets of cancer and aging” (priority 2002, published 2005)

System: LFS cells
Assay: poly (I:C) stimulation of LFS cells, STAT1α and IFNβ gene expression
Assay type: cell-based, human
Settings: poly (I:C) treatment

Substance: poly (I:C)
- STAT1α and IFNβ gene expression (MDAH041-PC): induced
- STAT1α and IFNβ gene expression (MDAH087-1): no induction
- STAT1α and IFNβ gene expression (MDAH087-10): no induction
- STAT1α and IFNβ gene expression (MDAH087-N): induced
- STAT1α and IFNβ gene expression (MDAH087-PC): induced
- STAT1α and IFNβ gene expression (immortal MDAH041): induced
